Data from patent publication US7008627B1, “Use of complexes for the preparation of compositions for the treatment of sensitive skin, preparation process and hypoallergenic compositions” (Johnson & Johnson Consumer France, priority 1996, dated 2006).
Values joined by “and” are separate entries in the source; they are usually repeats but may differ in a detail not shown here. Identical values can stand only once.

Assays:
[1] = system: nitro derivatives (NO2^−); experiment: Production of nitro derivatives by macrophages after stimulation by IFN-γ + LPS; type: cell-based, human; conditions: for Production of nitro derivatives (NO2^−), value between brackets: Table 5A, macrophages not stimulated by IFN-γ + LPS, + 10 mg/ml of the product; for effect on the production of nitro derivatives: macrophages stimulated by IFN-γ and LPS
Description: (§1) The activities of the test products are therefore investigated with respect to human macrophage and keratinocyte cultures which are or are not stimulated by intereferon-γ+lipopolysaccharide (non-specific inflammation or by IL-4 (allergic inflammation). This type of stimulation places the cells in the context of a pro-oxidizing response (generation of NO or superoxide anion free radicals, which can be evaluated by measuring the production of nitrogeneous derivatives) and an immuno-inflammatory response (production of cytokines such as TNF-α).
(§2) The following products were used during this study: Escherichia coli LPS (Sigma), used at 1 μg/ml. IFN-γ and IL-4 are sourced from Immugenex (Los Angeles Calif.) and are used respectively at 1000 U/ml and 10 ng/ml, the monoclonal IgEs are sourced from Stallergene (Fresnes, France) and the anti-IgEs are from Nordic (Tilburg, Holland).
(§3) The macrophage cells are obtained from the peripheral blood of normal donors (non-allergic). The mononuclear cells are isolated on a ficoll gradient and the ring of lymphoid cells is recovered and washed three times and the cells are then cultured so as to cause the macrophage cells to adhere. These cells are recovered after adhering for 1 hour and are cultured (10^6 cells/ml/well). If appropriate, in the case of stimulation by IL-4, the presence of the IgE receptor (CD23) at the surface of the cells is verified by immunolabelling.
(§4) The cells are activated by the combination of IFN-γ and LPS for 3 to 4 days and the supernatants of these cultures are then recovered in order to quantitatively determine the nitrogeneous derivatives and TNF-α. Likewise, during stimulation by IgE, the cells are first activated by IL-4, so as to induce the CD23, and are then subsequently cultured and stimulated by the IgE-containing immune complexes for 3 to 5 days before recovering the different supernatants. In all the cases, cellular viability is achieved on conclusion of these cultures. In the specific case of macrophages, a long-term (7 to 12 days) viability study was carried out, so as to determine the protective effects of these products. Quantitative determination of the nitrogenous derivatives is carried out using the Griess approach and the TNF level is measured by using quantitative determination kits from Medgënix (Fleurus, Belgium).
(§5) In this study, the product H37 (10 mg/ml) is added 30 min before stimulation by IFN-γ+LPS.
(§6) In this study, the products (10 mg/ml or 1/100 v/v) are added 30 min before stimulation by IFN-γ+LPS. In none of the cases have these products shown a cytotoxic activity.

TNF [2] = experiment: Production of TNF by keratinocytes after stimulation by IFN-γ + LPS; type: cell-based, human; conditions: for Production of TNF: keratinocytes stimulated by IFN-γ + LPS, Expt-1 to Expt-4; for effect on the production of TNF: keratinocytes stimulated by IFN-γ and LPS
Description: as §1, §2
(§7) The confluent keratinocyte cultures are trypsinized and transferred into 24-well plates in fresh medium at the cellular density of 10^5 cells/ml/well. If appropriate, in the case of stimulation by IL-4, the presence of the IgE receptor (CD23) at the surface of the cells is verified by immunolabeling.
as §4, §5, §6

[3] = system: nitro derivatives (NO2^−); experiment: Production of nitro derivatives by macrophages after stimulation by IL-4 and IgE-containing immune complexes; type: cell-based, human; conditions: for Production of nitro derivatives (NO2^−): macrophages stimulated by IgE-containing immune complexes (IL-4), Expt-1 to Expt-4
Method: (§8) To evaluate the allergic inflammation, the cells are activated by IL-4, which induces the CD23 receptor, and then by IgE-containing immune complexes. In all cases, the cellular supernatants are analysed after the activation.
as §2, §3, §4
On completion of this culturing period, 30 to 80% of the keratinocytes and of the macrophages express CD23. The individual variations are in no case the reflection of a different allergic situation between these individuals.
After the CD23 has been taken up by IgE-containing immune complexes, the production of a large number of mediators and cytokines (in particular TNF) and of products resulting from the oxidative metabolism, such as nitrogenous derivatives, is induced. This stimulation redefines in vitro an allergic-type inflammatory reaction.
(§9) On completion of this culturing period, 30 to 80% of the keratinocytes and of the macrophages express CD23. The individual variations are in no case the reflection of a different allergic situation between these individuals. […]

keratinocytes = experiment: Dose effect of K18 on the inflammatory functions of the keratinocytes (FIG. 1); type: cell-based, human
Method: FIG. 1: Dose effect of carboxymethyl-β-glucan with respect to the inflammatory functions of the keratinocytes.
Consequently, the effects of the product K18 were evaluated as a function of the dose. The results are illustrated in FIG. 1.

TNF [4] = experiment: Production of TNF by macrophages after stimulation by IFN-γ + LPS; type: cell-based, human; conditions: for effect on the production of TNF: macrophages stimulated by IFN-γ and LPS
Description: as §1, §2, §3
as §4, with “In all the cases, cellular viability is achieved on conclusion of these cultures. In the specific case of macrophages, a long-term (7 to 12 days) viability study was carried out, so as to determine the protective effects of these products.” left out, “Belgium). […]” for “Belgium).”

[5] = system: nitro derivatives (NO2^−); experiment: Production of nitro derivatives by keratinocytes after stimulation by IFN-γ + LPS; type: cell-based, human; conditions: for Production of nitro derivatives (NO2^−), value between brackets / Production of nitro derivatives (NO2^−): Table 5A, + 10 mg/ml of the product; for Production of nitro derivatives (NO2^−), value between brackets: keratinocytes not stimulated by IFN-γ + LPS; for Production of nitro derivatives (NO2^−): keratinocytes stimulated by IFN-γ + LPS, Expt-1 to Expt-4; for effect on the production of nitro derivatives / NO: keratinocytes stimulated by IFN-γ and LPS
Description: as §1, §2, §7, §4, §5, §6

[6] = system: nitro derivatives (NO2^−); experiment: Production of nitro derivatives by keratinocytes after stimulation by IL-4 and IgE-containing immune complexes; type: cell-based, human
Method: as §8, §2, §7
(§10) The cells are activated by the combination of IFN-γ and LPS for 3 to 4 days and the supernatants of these cultures are then recovered in order to quantitatively determine the nitrogeneous derivatives and TNF-α. […] Quantitative determination of the nitrogenous derivatives is carried out using the Griess approach and the TNF level is measured by using quantitative determination kits from Medgënix (Fleurus, Belgium). […]

TNF [7] = experiment: Production of TNF by macrophages after stimulation by IL-4 and IgE-containing immune complexes; type: cell-based, human
Method: as §8, §2
The macrophage cells are obtained from the peripheral blood of normal donors (non-allergic). The mononuclear cells are isolated on a ficoll gradient and the ring of lymphoid cells is recovered and washed three times and the cells are then cultured so as to cause the macrophage cells to adhere. These cells are recovered after adhering for 1 hour and are cultured (10^6 cells/ml/well). […]
as §10

TNF [8] = experiment: Production of TNF by keratinocytes after stimulation by IL-4 and IgE-containing immune complexes; type: cell-based, human
Method: as §8, §2, §7, §4, §9

[9] = system: keratinocytes and macrophages; experiment: Overall anti-inflammatory activity (non-specific and allergic) on stimulated keratinocytes and macrophages; type: cell-based, human; conditions: conclusion from the IFN-γ + LPS (non-specific) and IL-4/IgE (allergic) models
Description: as §1, §8
The cells are activated by the combination of IFN-γ and LPS for 3 to 4 days and the supernatants of these cultures are then recovered in order to quantitatively determine the nitrogeneous derivatives and TNF-α. […] Quantitative determination of the nitrogenous derivatives is carried out using the Griess approach and the TNF level is measured by using quantitative determination kits from Medgënix (Fleurus, Belgium).

[10] = system: peroxidation of the lipids; experiment: Summary table: anti-free radicals activity, peroxidation of the lipids; conditions: result in words
TNF-α = experiment: Summary table: anti-inflammatory activity, TNF-α; type: cell-based, human; conditions: result in words
Description: (§11) It is possible in particular to operate on keratinocytes and macrophage cells because these are cells which are essential for the development of a local inflammatory reaction. Moreover, macrophages are particularly advantageous cells because, due to the fact that these are resident cells in the skin, they regulate not only local inflammatory reactions but they also regulate the immune responses by their ability to present the antigen and to produce a great number of cytokines which regulate local immunity. These macrophages are also involved in communications with the circulatory system which can, if appropriate, mobilize different cell types (monocytes, neutrophils, eosinophils and T lymphocytes), thus increasing the non-specific and specific defensive power of the tissue under consideration.
as §1

PGE2 = experiment: Summary table: anti-inflammatory activity, PGE2; type: cell-based; conditions: result in words
Description: as §11, §1

LTB4 = experiment: Summary table: anti-inflammatory activity, LTB4; type: cell-based; conditions: result in words
Description: as §11, §1

NO = experiment: Summary table: anti-free radicals activity, NO; type: cell-based, human; conditions: result in words
Description: as §11, §1

IL-1α = experiment: Summary table: anti-inflammatory activity, IL-1α; type: cell-based; conditions: result in words
Description: as §11, §1

[11] = system: mixed lympho-epidermal cultures (MLEC); experiment: Summary table: anti-allergic activity, mixed lympho-epidermal cultures (MLEC), lymphocyte proliferation; type: cell-based; conditions: result in words
Description: The activity of the components is also confirmed on mixed lympho-epidermal cultures (MLEC).
In the skin, Langherans cells indeed play an essential role in the […] of the antigen and keratinocytes generate factors which are involved in the immune response, thus constituting a cutaneous immune system. MLECs make it possible to determine the immuno-modulatory properties of substance by measuring the lymphocyte proliferation induced by the antigen-presenting allogenic epidermal cells, with or without treatment by the substance.

catalase = experiment: Summary table: anti-free radicals activity, catalase; conditions: result in words
Description: (§12) Enzymes which are active in endogenous defence systems against free radicals are, for example, SOD (or superoxide -disumtase), catalase or glutathione peroxidase; attempts will be made to stimulate the production of these enzymes or they can be introduced exogeneously.

glutathione peroxidase = experiment: Summary table: anti-free radicals activity, glutathione peroxidase; conditions: result in words
Description: as §12

[12] = Table 5B, + 10 mg/ml of the product
[13] = Table 6A, + 10 mg/ml of the product
[14] = keratinocytes stimulated by IL-4

## Carboxymethyl-β-glucan [K18]
[1]
  Production of nitro derivatives (NO2^−), value between brackets: 1 µM and 2 µM
  effect on the production of nitro derivatives: high ability to inhibit
TNF [2]; [12]
  Production of TNF: 130 pg/mL and 95 pg/mL and 85 pg/mL and 82 pg/mL
TNF [2]
  effect on the production of TNF: efficiently inhibit
[3]; Table 6A, macrophages not stimulated by IgE-containing immune complexes, + 10 mg/ml of the product
  Production of nitro derivatives (NO2^−), value between brackets: 2 µM and 4 µM
[3]; [13]
  Production of nitro derivatives (NO2^−): 7 µM and 6 µM and 10 µM
[3]; macrophages stimulated by IL-4
  effect on the production of nitro derivatives: inhibitory activity
keratinocytes
  generation of TNF as a function of the dose: inhibits, in a dose-dependent way
  generation of nitro derivatives as a function of the dose: inhibits, in a dose-dependent way
TNF [4]
  effect on the production of TNF: efficiently inhibit
[5]
  Production of nitro derivatives (NO2^−), value between brackets: 1 µM
  Production of nitro derivatives (NO2^−): 13 µM and 14 µM and 11 µM and 7 µM
  effect on the production of nitro derivatives / NO: high ability to inhibit
[6]; Table 6A, keratinocytes not stimulated by IgE-containing immune complexes, + 10 mg/ml of the product
  Production of nitro derivatives (NO2^−), value between brackets: 2 µM and 4 µM
[6]; [14]
  effect on the production of nitro derivatives: inhibitory activity
TNF [7]; macrophages stimulated by IL-4
  effect on the production of TNF: inhibitory activity
TNF [8]; [14]
  effect on the production of TNF: inhibitory activity
[9]
  anti-inflammatory activity: non-specific and allergic-type anti-inflammatory activity

## β-Glucan
[10]
  Anti-free radicals: peroxidation of the lipids: no effect
TNF-α
  Anti-inflammatory: TNF-α: inhibition
PGE2
  Anti-inflammatory: PGE2: inhibition
LTB4
  Anti-inflammatory: LTB4: no effect
NO
  Anti-free radicals: NO: inhibition
IL-1α
  Anti-inflammatory: IL-1α: inhibition
[11]
  Anti-allergic: MLEC: no effect
catalase
  Anti-free radicals: catalase: stimulation
Glutathione peroxidase
  Anti-free radicals: glutathione peroxidase: stimulation

## poly-β(1→3)-glucopyranose [K17]
[1]
  Production of nitro derivatives (NO2^−), value between brackets: 2 μM and 1 μM and 1.5 μM and 2 (2) μM
  effect on the production of nitro derivatives: high ability to inhibit
TNF [2]; Table 5B, keratinocytes not stimulated by IFN-γ + LPS, + 10 mg/ml of the product, ND = non-detectable
  Production of TNF, value between brackets: 95 pg/mL
TNF [2]; [12]
  Production of TNF: 125 pg/mL and 98 pg/mL and 100 pg/mL and 70 pg/mL
TNF [2]
  effect on the production of TNF: efficiently inhibit
[3]; [13]
  Production of nitro derivatives (NO2^−): 16 µM and 17 µM and 19 µM and 30 µM
TNF [4]; Table 5B, macrophages stimulated by IFN-γ + LPS, + 10 mg/ml of the product, Expt-1 to Expt-4
  Production of TNF: 605 pg/mL and 902 pg/mL and 970 pg/mL and 695 pg/mL
TNF [4]
  effect on the production of TNF: efficiently inhibit
[5]
  Production of nitro derivatives (NO2^−), value between brackets: 2 µM and 1 µM
  Production of nitro derivatives (NO2^−): 15 µM and 16 µM and 8 µM
  effect on the production of nitro derivatives / NO: high ability to inhibit
TNF [7]; Table 6B, macrophages not stimulated by IgE-containing immune complexes, + product
  Production of TNF, value between brackets: 45 pg/mL and 41 pg/mL and 32 pg/mL
TNF [8]; Table 6B, keratinocytes not stimulated by IgE-containing immune complexes, + product
  Production of TNF, value between brackets: 35 pg/mL and 31 pg/mL and 32 pg/mL and 40 pg/mL
TNF [8]; Table 6B, keratinocytes stimulated by IL-4 / IgE-containing immune complexes, + product, Expt-1 to Expt-4
  Production of TNF: 185 pg/mL and 111 pg/mL and 120 pg/mL and 132 pg/mL
[9]
  anti-inflammatory activity: only has a non-specific anti-inflammatory activity
